Reference: publication PMC11173529, “Structure–Activity Relationship Studies in a Series of Xanthine Inhibitors of SLACK Potassium Channels” (Molecules, 2024)

Target: T1, WT hSLACK (Homo sapiens, UniProt Q5JUK3)
T1 construct: host or cells: CHO-K1
T1 sequence (Q5JUK3 1-1235 isoform Q5JUK3-3): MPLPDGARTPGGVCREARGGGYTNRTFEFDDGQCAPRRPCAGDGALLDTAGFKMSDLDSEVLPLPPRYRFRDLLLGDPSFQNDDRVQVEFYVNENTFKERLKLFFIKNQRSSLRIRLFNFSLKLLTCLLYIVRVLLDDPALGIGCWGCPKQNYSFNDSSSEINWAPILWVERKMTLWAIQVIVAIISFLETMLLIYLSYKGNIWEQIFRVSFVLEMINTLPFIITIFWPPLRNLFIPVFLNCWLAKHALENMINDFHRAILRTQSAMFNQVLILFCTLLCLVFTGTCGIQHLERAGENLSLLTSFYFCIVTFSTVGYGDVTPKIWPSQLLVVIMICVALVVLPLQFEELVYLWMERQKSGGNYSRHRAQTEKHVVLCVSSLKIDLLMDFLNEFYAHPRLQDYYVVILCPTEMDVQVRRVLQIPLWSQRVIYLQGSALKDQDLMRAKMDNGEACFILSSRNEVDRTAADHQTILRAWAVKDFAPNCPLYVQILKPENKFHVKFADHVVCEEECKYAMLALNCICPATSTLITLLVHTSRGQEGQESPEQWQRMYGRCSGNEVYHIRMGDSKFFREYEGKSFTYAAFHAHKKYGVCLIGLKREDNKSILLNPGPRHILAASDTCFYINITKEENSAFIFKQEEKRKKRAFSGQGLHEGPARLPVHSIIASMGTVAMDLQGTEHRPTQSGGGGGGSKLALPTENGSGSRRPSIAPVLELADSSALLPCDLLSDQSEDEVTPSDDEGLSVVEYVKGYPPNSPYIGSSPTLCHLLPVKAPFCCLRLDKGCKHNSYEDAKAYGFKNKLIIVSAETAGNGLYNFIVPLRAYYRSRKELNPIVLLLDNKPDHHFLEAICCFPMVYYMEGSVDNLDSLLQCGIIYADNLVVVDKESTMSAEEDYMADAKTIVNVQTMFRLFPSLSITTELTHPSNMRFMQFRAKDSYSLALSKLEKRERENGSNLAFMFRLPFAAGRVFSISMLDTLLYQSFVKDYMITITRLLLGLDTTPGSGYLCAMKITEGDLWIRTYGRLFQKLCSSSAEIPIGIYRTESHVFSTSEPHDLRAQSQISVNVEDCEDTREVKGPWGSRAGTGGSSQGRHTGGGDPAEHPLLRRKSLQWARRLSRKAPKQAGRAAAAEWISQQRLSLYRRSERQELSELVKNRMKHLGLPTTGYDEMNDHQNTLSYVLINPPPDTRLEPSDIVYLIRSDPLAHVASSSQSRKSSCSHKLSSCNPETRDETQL
Test: Whole-cell automated patch-clamp (APC) in CHO cells stably expressing WT hSLACK
Type: cell-based
Details: for SLACK Imax: maximum inhibition at 30 µM test compound standardized to VU0606170 (set at 100%), WT hSLACK; for IC50: whole-cell APC, CHO cells stably expressing WT hSLACK, averages n ≥ 3, read-out: SLACK IC50
Procedure: All new analogs were tested in our APC assay using CHO cells stably expressing WT SLACK using a concentration-response format with concentrations ranging from 0.125 to 30 μM in half-log steps and a minimum of three cells (replicates) per concentration series. […] Still, there were some notable results. For example, substitution at the 4-position was largely unfavorable regardless of the nature of the substituent (21, 24, 27, 30, and 33) apart from the 4-fluoro analog 18. […] As the trifluoromethyl group is similar in electronegativity to chlorine, but larger than both methyl and chlorine, perhaps the steric bulk of the trifluoromethyl is to blame for the poor potency of these analogs. With the exception of the fluoro (16–18) and cyano (28–30) analogs, substitution at the 3-position was favorable for SLACK activity, with 3-methoxy analog 32 standing out in this set.
Stably transfected monoclonal HEK293 cell lines expressing Slick, Maxi-K α1/β3, Maxi-K α1/β4, CaV3.2, GIRK 1/2, KV2.1, KV7.2, NaV1.7, and TASK-1 were generated as previously described. Stably transfected monoclonal HEK293 cell lines expressing hERG were generated as previously described. CHO-K1 cells expressing human Slack and disease-associated human Slack mutations, G288S and A934T, were generated by transfecting a PiggyBac TRE mammalian expression vector (VectorBuilder, Chicago, IL, USA) containing KCNT1. FuGENE 6 (Promega, Madison, WI, USA) transfection reagent and protocol, together with Opti-MEM (Thermo Fisher Scientific, Walkham, MA, USA), were utilized.
Automated patch-clamp recording was performed with a SyncroPatch 768 PE system (Nanion, Munich, Germany) as previously described. Whole-cell recordings were performed at room temperature. Cells were harvested by first washing with PBS without Mg^2+ or Ca^2+ (Gibco, Billings, MT, USA) to remove cell culture media, followed by dissociation with TryPLE (Gibco, Billings, MT, USA). Cells were then resuspended and diluted to 100,000 cells/mL in external solution. External solution contained 105 mM NaCl, 4 mM KCl, 1 mM MgCl2, 5 mM CaCl2, 10 mM HEPES, and 40 mM N-Methyl-D-glucamine chloride, titrated to pH of 7.4 and osmolarity of 300 mOsm/kg; internal solution contained 70 mM NaCl, 70 mM KF, 10 mM KCl, 5 mM EGTA, and 5 mM HEPES, titrated to a pH of 7.2 and osmolarity of 295 mOsm/kg.
The APC protocol was set as follows: Cells were held at a […] of −80 mV for 100 ms, then a ramp protocol was performed from −100 mV to 80 mV at 0.4 mV/ms, followed by holding the cell at −80 mV for another 100 ms, then steps were performed at −20 mV, 0 mV, +20 mV, +40 mV, and +60 mV for 100 ms of each step. Whole-cell currents were measured at 0 mV and normalized to current after external buffer addition. […] To obtain the concentration-response relationship graphs and IC50 values, we take the median value of the last 7 current amplitude values obtained for each set of data points collected for a given concentration at a particular step.

Compound | SLACK Imax [%] | IC50 [µM]
COc1cccc(Cn2c(=O)c3c(nc(N(C)Cc4ccccc4)n3C)n(C)c2=O)c1 [Analog 32] | 100 | 0.8
CN(Cc1cccc(F)c1)c1nc2c(c(=O)n(Cc3ccccc3)c(=O)n2C)n1C [Analog 48] | 100 | 0.89
CCCCN(Cc1ccccc1)c1nc2c(c(=O)n(Cc3ccccc3)c(=O)n2C)n1C [Analog 70] | 100 | 0.94
Cn1c(N(Cc2ccccc2)CC2CC2)nc2c1c(=O)n(Cc1ccccc1)c(=O)n2C [Analog 71] | 100 | 0.98
CCCCN(Cc1cccc(F)c1)c1nc2c(c(=O)n(Cc3cccc(OC)c3)c(=O)n2C)n1C [Analog 78] |  | 1.2
COc1cccc(Cn2c(=O)c3c(nc(N(Cc4cccc(F)c4)CC4CC4)n3C)n(C)c2=O)c1 [Analog 79] |  | 1
CCCCN(Cc1ccc(F)cc1)c1nc2c(c(=O)n(Cc3cccc(OC)c3)c(=O)n2C)n1C [Analog 80] |  | 0.7
COc1cccc(Cn2c(=O)c3c(nc(N(Cc4ccc(F)cc4)CC4CC4)n3C)n(C)c2=O)c1 [Analog 81] |  | 1.5
